The values that follow come from patent publication US9663429B2, “Vitamin D analogues of pharmaceutical interest” (UNIVERSIDADE DE SANTIAGO DE COMPOSTELA, priority 2013, dated 2017).

A short description of data set [1]: Calcaemic effects in mice at 0.3 μg/kg. It counts as in vivo. The conditions noted are these: for Calcaemic activity: blood calcium in percentage over that induced by 1,25D: ip every two days for 21 days, 0.3 μg/kg (table title prints 0.3 mg/kg); for Hypercalcemia (serum calcium versus control): 0.3 μg/Kg ip every 2 days for 21 days. The protocol:
FIG. 8. […] 1,25D and the various analogues were injected intraperitoneally every 2 days for 21 days at a dose of 0.3 μg/Kg. After treatment the calcium levels in the serum were evaluated and the values were represented as mean±SD in […].
(§1) Calcium mobilization of analogues was determined in 28 male CD-1 mice (6-8 weeks old). 6 Groups of 4 mice each were established, which mice were intraperitoneally (ip) injected with 0.3 μg/kg weight of each analogue or 1,25D dissolved in sesame oil every two days for 3 weeks. A seventh group of 4 mice treated with the carrier (sesame oil) served as controls. Calcium levels in blood were determined by QuantiChomCalciumAssay Kit (BioAssaySystems, Hayward, Calif., USA). In addition, a dose-response assay was performed to assess the effect of administration of the analogues PG-403 and PG136p and hormone (1,25D) at different doses on calcium levels. This assay was performed in male mice (5 mice per group), and the doses used were: 0.1, 0.5, 1, and 5 μg/kg weight of each analogue or 1,25D, i.p. administered every two days for 21 days. In addition, a control group (mice treated with sesame oil) was used.

Data set [2] in a line: Dose-response assay of serum calcium in mice. It counts as in vivo. As for the experimental part: FIG. 9. […] 1,25D (dose of 0.3 μg/kg) and analogues (doses of 0.1, 0.5, 1 and 5 μg/kg) were injected intraperitoneally every 2 days for 21 days. After treatment the calcium levels in the serum were evaluated and the values were represented as mean±SD in […].
as §1

Data set [3] in a line: Body weight of mice in the dose-response assay. In kind it is in vivo. As for the experimental part:
FIG. 10. […] 1,25D (dose of 0.3 μg/kg) and analogues (doses of 0.1, 0.5, 1 and 5 μg/kg) were injected intraperitoneally every 2 days for 21 days. Animals were weighed every two days during treatment. The values were represented as mean±SD in […].
In this experiment, also the weight of the animals was quantified to determine whether there was any modification throughout the treatment.

Data set [4] concerns the target T1, vitamin D receptor (VDR) (Homo sapiens, UniProt P11473).
T1 construct: purchased Invitrogen
T1 sequence (P11473 1-427): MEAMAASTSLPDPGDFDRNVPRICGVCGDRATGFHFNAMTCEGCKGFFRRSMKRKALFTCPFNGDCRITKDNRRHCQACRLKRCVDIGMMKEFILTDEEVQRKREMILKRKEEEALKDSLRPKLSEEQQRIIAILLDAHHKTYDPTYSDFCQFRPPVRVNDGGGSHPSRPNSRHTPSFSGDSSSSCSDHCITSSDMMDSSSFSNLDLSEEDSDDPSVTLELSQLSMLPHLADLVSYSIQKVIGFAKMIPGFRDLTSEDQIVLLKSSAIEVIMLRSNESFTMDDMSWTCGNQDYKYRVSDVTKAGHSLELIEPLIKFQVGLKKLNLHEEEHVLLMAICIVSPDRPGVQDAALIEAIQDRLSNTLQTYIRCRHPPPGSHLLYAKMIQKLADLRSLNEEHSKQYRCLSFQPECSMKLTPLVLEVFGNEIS
The data set is described as follows: Competitive binding to vitamin D receptor (Polarscreen VDR competitor assay, fluorescence polarisation). The conditions noted are these: for Binding to VDR % relative to 1,25D (100%): activity relative to natural hormone 1,25D normalised at 100%; for IC50: competitive displacement, 10^−11 to 10^−5 M. The protocol:
FIG. 1. […] The values represent the mean of at least two experiments.
Polarised fluorescence was determined in 384-well black plates for 200 ms/well using a Mithras LB 940 device (Berthold Technologies).
For orientation: Fluorescence polarisation rises when a labelled molecule tumbles more slowly, as on binding a larger partner.

In data set [5] the test system is MCF-7 cells. The data set is described as follows: 3D cell culture on matrigel (spheroid size), MCF-7. In kind it is cell-based, human. The settings on record: for Cell proliferation percentage MCF-7 3D: 10^−7 M, matrigel spheroids, 100% control cells. As for the experimental part: FIG. 7. MCF-7 cells were shown for 10 days on a matrigel bed until they formed a 3D cellular structure. […] After treatment, the spheroids were stained with DAPI (4′,6-diamino-2-phenylindole) for 1 hour and photographed under an inverted microscope with ultraviolet light. The size of these spheroids was measured and the values were represented as mean±SD in relative units. […] Those cells treated with the carrier were considered as the control value.
For 3D cell culture, a cushion of 200 μl of Matrigel (BD Biosciences) was used in each of the wells of multi-well plates of 24 wells. They were incubated at 37° C. for 20 minutes for their solidification and subsequently the cell suspension (5×10^3 cells per 100 μl volume of medium) was loaded onto the matrigel solidified and another incubation at 37° C. was performed for 30 minutes so that the cells penetrated properly on the matrigel base. 500 μl of DMEM medium were added to each well, and the cells were maintained in culture for 10 days. At the end of this time, the cells were started to be treated with each of the 5 analogues used and 1,25D.

Data set [6] concerns PC-3 cells. The data set is described as follows: MTT proliferation assay, PC-3. The conditions noted are these: 10^−7 M, 48 hours, 100% control cells.
Experimental: Proliferation assay in the PC-3 cell line of human prostate adenocarcinoma. […] The values were plotted in the graphs as mean±SD. As proliferation value, 100% was considered the normal growth of PC-3 cells treated with the carrier in the control.
(§2) The cells were cultured in 90-mm plates in essential culture medium DMEM, supplemented with 10% bovine foetal serum free of steroid hormones, 100 U/ml penicillin, 100 μg/ml streptomycin and 2 mM non-essential amino acids (L-glutamine) at 37° C. in a humid atmosphere O2/CO2 (95/5%).
(§3) The first is an indirect method for determining living cells, wherein the yellow water soluble MTT is reduced in mitochondria, thus generating a purple insoluble product (formazan). […] After this time, the culture medium was removed and 500 μl of dimethylsulfoxide (DMSO) was added to each well to solubilise the formazan incorporated by the cells.
Data set [7] concerns MCF-7 cells. Briefly: MTT proliferation assay, MCF-7. The conditions noted are these: 10^−7 M, 48 hours, 100% control cells.
Experimental: Proliferation assay in the MCF-7 cell line of human breast adenocarcinoma. […] The values were plotted in the graphs as mean±SD. As proliferation value, 100% was considered the normal growth of MCF-7 cells treated with the carrier in the control.
as §2
Cell proliferation/toxicity in breast cancer lines was assessed by both incorporation assays of 3-(4,5-dimethylthiazol-2-yl)-2,5-difeniltetrazolium (MTT) bromide and cell culture in three dimensions (3D).
as §3
In data set [8] the test system is HaCaT cells. Briefly: MTT proliferation assay, HaCaT. The conditions noted are these: 10^−7 M, 48 hours, 100% control cells. A general note: Tetrazolium assays rely on reduction of a dye to a coloured formazan, in cell work by metabolically active cells.
Experimental: Proliferation assay in the HaCaT cell line of human keratinocytes. […] The values were plotted in the graphs as mean±SD. As proliferation value, 100% was considered the normal growth of HaCaT cells treated with the carrier in the control.
as §2, §3
For data set [9], the system named is SKOV-3 cells. The data set is described as follows: MTT proliferation assay, SKOV-3. The settings on record: 10^−7 M, 48 hours, 100% control cells.
Experimental: Proliferation assay in the SKOV-3 cell line of human ovary adenocarcinoma. […] The values were plotted in the graphs as mean±SD. As proliferation value, 100% was considered the normal growth of SKOV-3 cells treated with the carrier in the control.
as §2, §3
Data set [10] relates to 24-hydroxylase promoter, CYP24A1 (pCYP24A1-Luc). The data set is described as follows: Transactivation reporter assay (pCYP24A1-Luc) in MCF-7 cells. The conditions noted are these: for EC50: Homo sapiens, MCF7, 24 h, read-out: Transcriptional activity EC50; for Transcriptional activity % relative to 1,25D (100%): MCF-7 cells, pCYP24A1-Luc.
Experimental: MCF-7 cells were transfected with the reporter vector of 24-hydroxylase (pCYP24A1-Luc vector) for 24 hours. […] The experiments were performed at least twice. The error bars represent the standard deviation (SD).

“Also recorded” adds a separate entry of the source.

Turning to `C=C1/C(=C\C=C2/CCC[C@]3(C)[C@@H]([C@H](C)CCCC(C)(C)O)CC[C@@H]23)C[C@@H](O)C[C@@H]1O` [1,25D, 1,25-dihydroxyvitamin D3, reference compound], the Blood calcium in data set [1] (0.3 μg/kg ip every two days for 3 weeks, carrier 11.9±0.7) was 14.7 ± 0.58 mg/dL. In data set [1], the “Calcaemic activity: blood calcium in percentage over that induced by 1,25D” value is 100%. Moreover, the “Serum calcium versus controls, 1,25D” value in data set [2] (0.5 μg/kg weight ip every two days for 21 days) is reported as “induces a significant increase in serum calcium”. In data set [3] (mice, 0.5 μg/kg weight ip every two days for 21 days), the “Body weight, 1,25D” value was “produced a significant decrease in the weight of the animals”.

Take `C=C1/C(=C\C=C(/CCCC)c2cccc(CCCCCC(C)(C)O)c2)C[C@@H](O)C[C@@H]1O` [PG-128, (1R,3S,Z)-5-((E)-3-(3-(6-hydroxy-6-methylheptyl)phenyl)hept-2-enyliden)-4-methylenecyclohexane-1,3-diol]: in data set [4], the “Binding to VDR % relative to 1,25D (100%)” value worked out at 12% and the IC50 (as a rule, the concentration at which inhibition is half-maximal) was 13.6 nM. In data set [5], the “Cell proliferation percentage MCF-7 3D” value is given as 84%. In data set [1], the “Hypercalcemia (serum calcium versus control)” value was “does not produce hypercalcemia” and the “Calcaemic activity: blood calcium in percentage over that induced by 1,25D” value is on record as 34%. Besides, in data set [6], the “Cell proliferation percentage PC-3 2D” value was 84%. For the same compound, in data set [7], the “Cell proliferation percentage MCF-7 2D” value was determined as 74%. Besides, the “Cell proliferation percentage HaCaT 2D” value in data set [8] is recorded as 71%. In addition, the “Cell proliferation percentage SKOV-3 2D” value in [9] turned out to be 81%. For the same compound, in data set [10], the EC50 – broadly, the midpoint of the concentration-response curve – stood at 10 nM and the “Transcriptional activity % relative to 1,25D (100%)” value is recorded as 20%.

With `C=C1/C(=C\C=C(/CCC)c2cccc(CCCCCC(C)(C)O)c2)C[C@@H](O)C[C@@H]1O` [PG-152, (1R,3S,Z)-5-((E)-3-(3-(6-hydroxy-6-methylheptyl)phenyl)hex-2-enyliden)-4-methylenecyclohexane-1,3-diol], in [4], the “Binding to VDR % relative to 1,25D (100%)” value is 10% and the IC50 was found to be 17.6 nM. The “Cell proliferation percentage MCF-7 3D” value in data set [5] is given as 74%. In data set [1], the “Hypercalcemia (serum calcium versus control)” value is “does not produce hypercalcemia” and the “Calcaemic activity: blood calcium in percentage over that induced by 1,25D” value is listed as 41%. The “Cell proliferation percentage PC-3 2D” value in data set [6] is recorded as 83%. Besides, in data set [7], the “Cell proliferation percentage MCF-7 2D” value came out at 69%. The “Cell proliferation percentage HaCaT 2D” value in [8] turned out to be 71%. Also, the “Cell proliferation percentage SKOV-3 2D” value in data set [9] was 82%. Further, in data set [10], the EC50 worked out at 9.27 nM and the “Transcriptional activity % relative to 1,25D (100%)” value was found to be 21%.

For `C=C1/C(=C\C=C(/CCCCCC)c2cccc(CCCCCC(C)(C)O)c2)C[C@@H](O)C[C@@H]1O` [PG-156, (1R,3S,Z)-5-((E)-3-(3-(6-hydroxy-6-methylheptyl)phenyl)non-2-enyliden)-4-methylenecyclohexane-1,3-diol], in data set [4], the “Binding to VDR % relative to 1,25D (100%)” value is listed as 9% and the IC50 came out at 18.4 nM. In data set [5], the “Cell proliferation percentage MCF-7 3D” value was 79%. For the same compound, in data set [1], the “Hypercalcemia (serum calcium versus control)” value is listed as “does not produce hypercalcemia” and the “Calcaemic activity: blood calcium in percentage over that induced by 1,25D” value was 0%. The “Cell proliferation percentage PC-3 2D” value in data set [6] is 80%. Also, the “Cell proliferation percentage MCF-7 2D” value in [7] is reported as 78%. In addition, the “Cell proliferation percentage HaCaT 2D” value in [8] worked out at 74%. Besides, in [9], the “Cell proliferation percentage SKOV-3 2D” value is reported as 76%. For the same compound, in [10], the EC50 is 11.4 nM and the “Transcriptional activity % relative to 1,25D (100%)” value stood at 17%.

On to `C=C1/C(=C\C=C(/CCCCCC(C)(C)O)c2cccc(CCCCCC(C)(C)O)c2)C[C@@H](O)C[C@@H]1O` [PG-385, (1R,3S,Z)-5-((E)-9-hydroxy-3-(3-(6-hydroxy-6-methylheptyl)phenyl)-9-methyldec-2-enyliden)-4-methylenecyclohexane-1,3-diol], for which, in data set [1], the “Hypercalcemia (serum calcium versus control)” value is on record as “does not produce hypercalcemia” and the “Calcaemic activity: blood calcium in percentage over that induced by 1,25D” value is 9%. Further, in [7], the “Cell proliferation percentage MCF-7 2D” value was 69%. In [10], the EC50 turned out to be 5.6 nM and the “Transcriptional activity % relative to 1,25D (100%)” value is 35%.

`C=C1/C(=C\C=C(/CCCCCCC)c2cccc(CCCCCC(C)(C)O)c2)C[C@@H](O)C[C@@H]1O` [PG-403, (1R,3S,Z)-5-((E)-3-(3-(6-hydroxy-6-methylheptyl)phenyl)dec-2-enyliden)-4-methylenecyclohexane-1,3-diol]: in [4], the “Binding to VDR % relative to 1,25D (100%)” value was found to be 7% and the concentration for half-maximal inhibition (IC50) turned out to be 23.5 nM. In addition, the “Three-dimensional growth of MCF-7 spheroids (in words)” value in [5] (10^−7 M for 7 days) was “inhibit the three-dimensional growth, similarly to 1,25D”. Besides, the “Cell proliferation percentage MCF-7 3D” value in [5] is 55%. In [1], the “Hypercalcemia (serum calcium versus control)” value was “does not produce hypercalcemia” and the “Calcaemic activity: blood calcium in percentage over that induced by 1,25D” value is 0%. Further, the “Serum calcium versus control animals (placebo)” value in data set [2] (5 μg/kg weight ip every two days for 21 days) was “did not significantly raise serum calcium”. The “Serum calcium versus controls, analogues” value in data set [2] (doses 0.1, 0.5, 1 and 5 μg/kg ip every 2 days for 21 days) is “does not produce hypercalcemia; also recorded: None of the two analogues tested (PG136p and PG-403) induces increased serum calcium”. Besides, in data set [3] (mice, 0.1, 0.5, 1 and 5 μg/kg ip every 2 days for 21 days), the “Body weight versus control animals, analogues” value is “does not change the body weight; also recorded: did not significantly affect the body weight”. For the same compound, in data set [6], the “Cell proliferation percentage PC-3 2D” value came to 79%. Besides, the “Cell proliferation percentage MCF-7 2D” value in data set [7] was determined as 69%. In data set [8], the “Cell proliferation percentage HaCaT 2D” value was 71%. The “Cell proliferation percentage SKOV-3 2D” value in [9] stood at 83%. In data set [10], the EC50 amounted to 34.6 nM and the “Transcriptional activity % relative to 1,25D (100%)” value stood at 6%.

On to `C=C1/C(=C\C=C\c2cc(CCCCCC(C)(C)O)cc(CCCCCC(C)(C)O)c2)C[C@@H](O)C[C@@H]1O` [PG-433, (1R,3S,Z)-5-((E)-3-(3.5-(6-hydroxy-6-methylheptyl)phenyl)allyliden)-4-methylenecyclohexane-1,3-diol], for which, in data set [1], the “Hypercalcemia (serum calcium versus control)” value was “does not produce hypercalcemia” and the “Calcaemic activity: blood calcium in percentage over that induced by 1,25D” value is 8%. Moreover, the “Cell proliferation percentage MCF-7 2D” value in data set [7] is listed as 69%. Further, in data set [10], the EC50 turned out to be 2.95 nM and the “Transcriptional activity % relative to 1,25D (100%)” value worked out at 67%.
